These results are taken from patent US8354225B1, “Amplification of oligonucleotides containing non-standard nucleobases” (priority 2004, dated 2013).

The conditions of data set [1]: cited from earlier work.
Data set [2] deals with d(puADA) in the template (T3). Kind of data set: Paused-extension screen of polymerases. It counts as biochemical. As to conditions: template T3, primer P3, dNTPs, 72° C., 15 seconds. The method, then: FIG. 6. Use of Taq and DeepVent (DV) exo^+ polymerases as sequencing tools. Both polymerases were incubated with template T3, primer P3, and dNTPs.P=primer alone, 19 nts in length. […] Deep Vent exo appears to be degrading the primer, and perhaps the product as well.
Radiolabeled primer P3 (1 pmol) was mixed with template T3 (2 pmol), Thermopol buffer (1.5 μL, 10×), dATP, dCTP, dTTP, dGTP (final conc. 10 μM each), and water to a final volume of 14 μL. The mixture was heated to 95° C. for 10 min. and allowed to cool to ambient for 1 hour. The respective polymerase (Taq, Vent, Deep Vent, Vent exo^−, or Deep Vent exo−) was added (1 μL, 2 U/μL) and the reaction incubated at 72° C. for 15 seconds. The reaction was quenched with 20 mM EDTA in PAGE loading buffer (15 μL) and subsequently analyzed by electrophoresis on a 20% PAGE gel. The gel was analyzed using the MolecularImager software.

In the case of `O=c1[nH]c(=O)c2[nH]cnc2[nH]1` [pu(ADA), xanthine], in data set [1] (free heterocycle), the “pKa of the heterocycle (acid)” value is recorded as “ca. 5.7”.

With “Taq polymerase: Taq polymerase used as sequencing tool”, the entries for the “elongation upon encountering dX / d(puADA) in the template” value in data set [2] and in data set [2] (listed as Taq) were “terminates the elongation of a primer” and “abort elongation”, respectively. `Nc1ccnc(N)n1` [py(DAD), 2,4-diaminopyrimidine]: the “pKa of the conjugate acid” value in data set [1] (protonated heterocycle) is “≈ 6.7”.
